Patent EP4790046A1, “NOVEL COMPOUND DERIVED FROM MYRISTICA FRAGRANS, AND ANTICANCER COMPOSITION COMPRISING SAME” (Korea Institute of Science and Technology, priority 2023, dated 2025)
Like-named read-outs stand apart in the source and are kept apart here.

What was measured:
Type in all cases: cell-based
MiaPaCa-2 = test: alamarBlue cell viability (survival rate), MiaPaCa-2; conditions: MiaPaCa-2 (pancreatic cancer), compound 10 µM, 48 hours
Excerpt: (§1) A p-value < 0.05 was considered statistically significant.

caspase-3 and -7 = test: Caspase-3/7 activity assay (Caspase-Glo 3/7), SW48 cells; conditions: for Caspase-3/7 activity: RLU relative to DMSO; for caspase-3/7 signal higher than DMSO: SW48
Procedure: Apoptosis can be activated and progress through either the intrinsic or extrinsic pathway, but caspase-3, the executioner caspase, is involved in most cases. […] Since this enzyme activity is transient, analysis was performed at two time points: 6 hours and 12 hours post-treatment.
Specifically, the Caspase-3/7 activity assay was performed with slight modifications to the manufacturer's protocol (Promega, USA). Briefly, cells were seeded at a density of 5 × 10^3 cells/well in a 96-well plate, cultured for 24 hours, and then treated with the compound at an appropriate concentration for 6 or 12 hours. After treatment, Caspase-Glo 3/7 reagent was added in equal volumes to the treated samples. The plate was then shaken and incubated at room temperature for 2 hours. Enzyme activity was determined by measuring relative light units (RLU) using a Varioskan LUX Multimode Microplate Reader (Thermo Fisher Scientific, USA).

SNU-C5 = test: alamarBlue cell viability (survival rate, IC50), SNU-C5
Excerpt: as §1

SNU-719 = test: alamarBlue cell viability (survival rate, IC50), SNU-719
Excerpt: as §1

C=CCc1cc(OC)c(O[C@H](C)[C@H](c2ccc(O)c(OC)c2)c2ccc(O)c(C(=O)CCCCCCCCc3ccc(O)cc3)c2O)c(OC)c1 [Compound 3, Myricone C]
Cancer cell line survival rate (%) (MiaPaCa-2): 2.53%
Caspase-3/7 activity (caspase-3 and -7; SW48, 5 µM, 6 h): 1.10 fold
Caspase-3/7 activity (caspase-3 and -7; SW48, 5 µM, 12 h): 2.37 fold
Caspase-3/7 activity (caspase-3 and -7; SW48, 10 µM, 6 h): 1.89 fold
Caspase-3/7 activity (caspase-3 and -7; SW48, 10 µM, 12 h): 2.02 fold
caspase-3/7 signal higher than DMSO (caspase-3 and -7; high concentration (10 µM), 6 hours): 2.37 fold
caspase-3/7 signal higher than DMSO (caspase-3 and -7; low concentration (5 µM), 12 hours): 1.89 fold
Cancer cell line survival rate (%) (SNU-C5; SNU-C5 (colorectal cancer), compound 10 µM, 48 hours): 2.11%
IC50 (SNU-C5; SNUC5 (colorectal cancer), 2.5-40 µM, positive control = oxaliplatin, read-out: IC50): 2540 nM
IC50 (SNU-C5; SNUC5 cells, compound 2.5-40 µM, read-out: IC50 values): 2540 nM
IC50 (SNU-719; SNU719 (gastric cancer), 2.5-40 µM, positive control = doxorubicin): 2930 nM
Cancer cell line survival rate (%) (SNU-719; SNU-719 (gastric cancer), compound 10 µM, 48 hours): 4.30%
